Experimental findings from patent publication US7538132B2, “Isoxazolo derivatives” (Hoffman-La Roche Inc., priority 2005, dated 2009) are described below.

As usually defined, the Ki is a dissociation constant, usually derived from enzyme kinetics or from competition with a known ligand. Low readings indicate tighter binding, high ones weaker binding.

This assay addresses T1, GABA A receptor α5β3γ2 (hα5) (Homo sapiens, UniProt P18507+P31644).
T1 construct: expressed in transfected cells; host or cells: HEK293 (transiently transfected; membranes prepared from cell pellets)
Nature of the assay: [3H]flumazenil competition binding assay, human GABA A α5β3γ2 receptors. The note with it: displacement of [3H]flumazenil (0.5 nM) from membranes of HEK293 cells expressing human α5β3γ2; 1 hour at 4° C.; means of two determinations. As for the experimental part: The affinity of compounds at GABA A receptor subtypes was measured by competition for [3H]flumazenil (85 Ci/mmol; Roche) binding to HEK293 cells expressing rat (stably transfected) or human (transiently transfected) receptors of composition α1β3γ2, α2⊖3γ2, α3β3γ2 and α5β3γ2.
Cell pellets were suspended in Krebs-tris buffer (4.8 mM KCl, 1.2 mM CaCl2, 1.2 mM MgCl2, 120 mM NaCl, 15 mM Tris; pH 7.5; binding assay buffer), homogenized by polytron for ca. 20 sec on ice and centrifuged for 60 min at 4° C. (50000 g; Sorvall, rotor: SM24=20000 rpm). The cell pellets were resuspended in Krebs-tris buffer and homogenized by polytron for ca. 15 sec on ice. Protein was measured (Bradford method, Bio-Rad) and aliquots of 1 mL were prepared and stored at −80° C.
Assays were incubated to equilibrium for 1 hour at 4° C. and harvested onto GF/C uni-filters (Packard) by filtration using a Packard harvester and washing with ice-cold wash buffer (50 mM Tris; pH 7.5). After drying, filter-retained radioactivity was detected by liquid scintillation counting. Ki values were calculated using Excel-Fit (Microsoft) and are the means of two determinations.
On to `Cc1onc(-c2ccc(Br)cc2)c1C(=O)c1c[nH]c(C(=O)N[C@H]2CC[C@H](O)CC2)c1` [Example 123, 4-[3-(4-Bromo-phenyl)-5-methyl-isoxazole-4-carbonyl]-1H-pyrrole-2-carboxylic acid (4-hydroxy-cyclohexyl)-amide], for which the Ki is 0.0045 µM. This lies in the single-digit nanomolar range.

In the case of `Cc1onc(-c2ccccc2)c1C(=O)c1c[nH]c(C(=O)NC2CCC2)c1` [Example 15, 4-(5-Methyl-3-phenyl-isoxazole-4-carbonyl)-1H-pyrrole-2-carboxylic acid cyclobutylamide], affinity was put at a Ki of 0.00795 µM.

Compound `Cc1onc(-c2cccc(F)c2)c1C(=O)c1c[nH]c(C(=O)NC2CCCC2)c1` [Example 178, 4-[3-(3-Fluoro-phenyl)-5-methyl-isoxazole-4-carbonyl]-1H-pyrrole-2-carboxylic acid cyclopentylamide] showed a Ki of 0.0061 µM.

Compound `CCc1onc(-c2ccccc2)c1C(=O)c1c[nH]c(C(=O)NC2CC2)c1` [Example 217, 4-(5-Ethyl-3-phenyl-isoxazole-4-carbonyl)-1H-pyrrole-2-carboxylic acid cyclopropylamide] registered a Ki of 0.00485 µM.

In the case of `Cc1onc(-c2ccc(F)cc2)c1C(=O)c1c[nH]c(C(=O)NC2CCCC2)c1` [Example 136, 4-[3-(4-Fluoro-phenyl)-5-methyl-isoxazole-4-carbonyl]-1H-pyrrole-2-carboxylic acid cyclopentylamide], the inhibition constant (Ki) worked out at 0.00165 µM.

Turning to `Cc1onc(-c2ccc(Cl)cc2)c1C(=O)c1c[nH]c(C(=O)NCc2ccco2)c1` [Example 160, 4-[3-(4-Chloro-phenyl)-5-methyl-isoxazole-4-carbonyl]-1H-pyrrole-2-carboxylic acid (furan-2-ylmethyl)-amide], the affinity corresponds to a Ki of 0.0069 µM.

In turn, `Cc1onc(-c2ccc(Br)cc2)c1C(=O)c1c[nH]c(C(=O)NC2CCOC(C)(C)C2)c1` (stereo not shown) [Example 135, 4-[3-(4-Bromo-phenyl)-5-methyl-isoxazole-4-carbonyl]-1H-pyrrole-2-carboxylic acid (2,2-dimethyl-tetrahydro-pyran-4-yl)-amide] displayed a Ki of 0.0045 µM. Compared with the last compound, the Ki is about 1.5-fold lower.

In turn, `Cc1onc(-c2ccc(Cl)cc2)c1C(=O)c1c[nH]c(C(=O)NCC2CC2)c1` [Example 156, 4-[3-(4-Chloro-phenyl)-5-methyl-isoxazole-4-carbonyl]-1H-pyrrole-2-carboxylic acid cyclopropylmethyl-amide] had a Ki of 0.00385 µM.

In turn, `Cc1onc(-c2ccc(F)cc2)c1C(=O)c1c[nH]c(C(=O)NC2CC2)c1` [Example 137, 4-[3-(4-Fluoro-phenyl)-5-methyl-isoxazole-4-carbonyl]-1H-pyrrole-2-carboxylic acid cyclopropylamide] registered a Ki of 0.0041 µM.

Consider `Cc1onc(-c2ccc(F)c(F)c2)c1C(=O)c1c[nH]c(C(=O)NC2CCOCC2)c1` [Example 254, 4-[3-(3,4-Difluoro-phenyl)-5-methyl-isoxazole-4-carbonyl]-1H-pyrrole-2-carboxylic acid (tetrahydro-pyran-4-yl)-amide], for which the Ki was 0.0042 µM.

`Cc1onc(-c2ccc(Br)cc2)c1C(=O)c1c[nH]c(C(=O)NC(C)C)c1` [Example 84, 4-[3-(4-Bromo-phenyl)-5-methyl-isoxazole-4-carbonyl]-1H-pyrrole-2-carboxylic acid isopropylamide] registered a Ki of 0.00685 µM.

For the compound `Cc1onc(-c2ccccc2F)c1C(=O)c1c[nH]c(C(=O)NC2CCCC2)c1` [Example 173, 4-[3-(2-Fluoro-phenyl)-5-methyl-isoxazole-4-carbonyl]-1H-pyrrole-2-carboxylic acid cyclopentylamide], affinity was put at a Ki of 0.0063 µM.

With `C#CCNC(=O)c1cc(C(=O)c2c(-c3ccc(F)cc3)noc2C)c[nH]1` [Example 145, 4-[3-(4-Fluoro-phenyl)-5-methyl-isoxazole-4-carbonyl]-1H-pyrrole-2-carboxylic acid prop-2-ynylamide], affinity was put at a Ki of 0.00775 µM.

In turn, `CCc1onc(-c2ccccc2)c1C(=O)c1c[nH]c(C(=O)NC2CCCC2)c1` [Example 215, 4-(5-Ethyl-3-phenyl-isoxazole-4-carbonyl)-1H-pyrrole-2-carboxylic acid cyclopentylamide] came in with a Ki of 0.0021 µM.

On to `Cc1onc(-c2ccc(Br)cc2)c1C(=O)c1c[nH]c(C(=O)NC2CCOCC2)c1` [Example 61, 4-[3-(4-Bromo-phenyl)-5-methyl-isoxazole-4-carbonyl]-1H-pyrrole-2-carboxylic acid (tetrahydro-pyran-4-yl)-amide], for which the Ki is 0.00365 µM.

`C#CCNC(=O)c1cc(C(=O)c2c(-c3ccc(Cl)cc3)noc2C)c[nH]1` [Example 157, 4-[3-(4-Chloro-phenyl)-5-methyl-isoxazole-4-carbonyl]-1H-pyrrole-2-carboxylic acid prop-2-ynylamide] had a Ki of 0.00745 µM.

`COCc1onc(-c2ccc(F)cc2)c1C(=O)c1c[nH]c(C(=O)NC2CCOCC2)c1` [Example 221, 4-[3-(4-Fluoro-phenyl)-5-methoxymethyl-isoxazole-4-carbonyl]-1H-pyrrole-2-carboxylic acid (tetrahydro-pyran-4-yl)-amide] showed an inhibitory constant (Ki) of 0.0043 µM.

`Cc1onc(-c2ccc(Cl)cc2)c1C(=O)c1c[nH]c(C(=O)NC2CC2)c1` [Example 154, 4-[3-(4-Chloro-phenyl)-5-methyl-isoxazole-4-carbonyl]-1H-pyrrole-2-carboxylic acid cyclopropylamide] came in with a Ki of 0.0061 µM.

The compound `CCc1onc(-c2ccccc2)c1C(=O)c1c[nH]c(C(=O)NCC2CC2)c1` [Example 216, 4-(5-Ethyl-3-phenyl-isoxazole-4-carbonyl)-1H-pyrrole-2-carboxylic acid cyclopropylmethyl-amide] came in with a Ki of 0.0023 µM. Compared with the last compound, the Ki is about 2.7-fold lower.
